8 compounds from ChEMBL document CHEMBL1137749, “Antifungal unsaturated cyclic Mannich ketones and amino alcohols: study of mechanism of action” (2009) can be followed below.

Experiment [1] concerns Candida albicans. Description: Antifungal activity against Candida albicans ATCC 90028 assessed as increase in 124 kDa fungal protein at 0.5 time MIC after 1 hr by electrophoresis-based microchip technology. Type of experiment: functional, organism-based.
Experiment [2] deals with Candida albicans. Description: Antifungal activity against Candida albicans ATCC 90028 assessed as increase in 147 kDa fungal protein at 2 times MIC after 1 hr by electrophoresis-based microchip technology. Type of experiment: functional, organism-based.
The subject of experiment [3] is Candida parapsilosis. Description: Antifungal activity against Candida parapsilosis ATCC 22019 after 48 hrs by macro tube dilution method. Type of experiment: functional. Particulars: Lodderomyces parapsilosis, ATCC 22019, 48 h.
The test system of experiment [4] is Candida albicans. Description: Antifungal activity against Candida albicans ATCC 90028 assessed as increase in 117 kDa fungal protein at 0.5 time MIC after 1 hr by electrophoresis-based microchip technology. The format is functional, organism-based.
In experiment [5] the test system is Candida albicans. Description: Antifungal activity against Candida albicans ATCC 90028 assessed as increase in 124 kDa fungal protein at 2 times MIC after 1 hr by electrophoresis-based microchip technology. Type of experiment: functional, organism-based.
The test system of experiment [6] is Saccharomyces cerevisiae. Description: Antifungal activity against Saccharomyces cerevisiae after 48 hrs by macro tube dilution method. Type of experiment: functional.
The subject of experiment [7] is Nakaseomyces glabratus. Description: Antifungal activity against Candida glabrata ATCC 3916 after 48 hrs by macro tube dilution method. To be noted: ATCC 3916, 48 h. The format is functional.
Experiment [8] relates to Pichia kudriavzevii. Description: Antifungal activity against Candida krusei ATCC 30068 after 48 hrs by macro tube dilution method. The format is functional. Particulars: ATCC 30068, 48 h.
Experiment [9] has as its system Candida albicans. Description: Antifungal activity against Candida albicans ATCC 90028 after 48 hrs by macro tube dilution method. The format is functional. To be noted: ATCC 90028, 48 h.
In experiment [10] the test system is Candida albicans. Description: Antifungal activity against Candida albicans ATCC 90028 assessed as increase in 104 kDa fungal protein at 2 times MIC after 1 hr by electrophoresis-based microchip technology. Type of experiment: functional, organism-based.
Experiment [11] has as its system Aspergillus sp. Description: Antifungal activity against Aspergillus sp. after 48 hrs by macro tube dilution method. Type of experiment: functional.
Experiment [12] relates to Candida albicans. Description: Antifungal activity against Candida albicans ATCC 90028 assessed as increase in 117 kDa fungal protein at 2 times MIC after 1 hr by electrophoresis-based microchip technology. Type of experiment: functional, organism-based.
Experiment [13] has as its system Candida albicans. Description: Antifungal activity against Candida albicans ATCC 90028 assessed as increase in 104 kDa fungal protein at 0.5 time MIC after 1 hr by electrophoresis-based microchip technology. Type of experiment: functional, organism-based.
Experiment [14] deals with Candida albicans. Description: Antifungal activity against Candida albicans ATCC 90028 assessed as increase in 147 kDa fungal protein at 0.5 time MIC after 1 hr by electrophoresis-based microchip technology. The format is functional, organism-based.
Experiment [15] relates to Candida albicans. Description: Antifungal activity against Candida albicans ATCC 90028 assessed as inhibition of fungal ergosterol synthesis at 1.56 ug/mL after 16 hrs by UV spectrophotometry. The format is functional, organism-based.
The subject of experiment [16] is Candida albicans. Description: Antifungal activity against Candida albicans ATCC 90028 assessed as number of fungal cells with pseudohyphae out of 100 cells at 0.5 time MIC after 0 to 6 hrs by light microscopy. Type of experiment: functional.
Experiment [17] deals with Candida albicans. Description: Antifungal activity against Candida albicans ATCC 90028 assessed as inhibition of fungal ergosterol synthesis at 0.5 times MIC after 16 hrs by UV spectrophotometry. Type of experiment: functional, organism-based.
Experiment [18] deals with Candida albicans. Description: Antifungal activity against Candida albicans ATCC 90028 assessed as number of fungal cells without pseudohyphae out of 100 cells at 0.5 time MIC after 0 to 6 hrs by light microscopy. The format is functional.
The test system of experiment [19] is Candida albicans. Description: Antifungal activity against Candida albicans ATCC 90028 assessed as changes in fungal protein expression at 2 times MIC after 1 hr by electrophoresis-based microchip technology. The format is functional, organism-based.
The test system of experiment [20] is Candida albicans. Description: Inhibition of chitin synthase in Candida albicans ATCC 90028 at 1.5 times MIC by liquid scintillation analyzer relative to nikkomycin.
Experiment [21] concerns Candida albicans. Description: Antifungal activity against Candida albicans ATCC 90028 assessed as changes in fungal protein expression at 0.5 time MIC after 1 hr by electrophoresis-based microchip technology. The format is functional, organism-based.
The species named for experiment [22] is Rattus norvegicus. Description: Inhibition of lactate dehydrogenase in Wistar rat kidney at 1.5 times MIC relative to control.
Experiment [23] deals with Candida albicans. Description: Antifungal activity against Candida albicans ATCC 90028 assessed as inhibition of fungal ergosterol synthesis at 25 ug/mL after 16 hrs by UV spectrophotometry. The format is functional, organism-based.

SMILES strings stand for the structures. In brackets after ≈: the same amount, converted by molar mass. Activity calls are given as the source filed them. No cut-off for these calls is given here.

Consider `O=C1/C(=C/c2ccccc2)CCC1CN1CCc2ccccc2C1` (stereo unspecified), for which the result in experiment [1], in experiment [2], in [4], in experiment [5], in experiment [10] and in experiment [12] was Active. Besides, the result in [13] and in experiment [14] was Active. In addition, the minimal inhibitory concentration (MIC) in experiment [3] came out at 12.5 µg/mL (≈ 39.4 µM); in [6], 1.56 µg/mL (≈ 4.91 µM); in [7], 6.25 µg/mL (≈ 19.7 µM); in experiment [8] it was 12.5 µg/mL (≈ 39.4 µM); in experiment [9], 12.5 µg/mL (≈ 39.4 µM); in experiment [11] it was 200 µg/mL (≈ 630 µM).
As to `COc1ccc(/C=C2\CCC(CN3CCCCC3)C2=O)cc1` (stereo unspecified), the result in experiment [1], in [2], in experiment [4], in experiment [5], in [10] and in experiment [12] was Active. The result in [13] and in experiment [14] was Active. The minimum inhibitory concentration (MIC) was 6.25 µg/mL (≈ 20.9 µM) in [3]; 3.12 µg/mL (≈ 10.4 µM) in experiment [6]; 6.25 µg/mL (≈ 20.9 µM) in experiment [7]; 12.5 µg/mL (≈ 41.7 µM) in experiment [8]; 12.5 µg/mL (≈ 41.7 µM) in [9]; 100 µg/mL (≈ 334 µM) in experiment [11].
Regarding `OC(Cn1cncn1)(Cn1cncn1)c1ccc(F)cc1F`, the result in [15] was inactive.
Consider `COc1ccc(/C=C2\CC[C@@H](CN3CCCCC3)[C@@H]2O)cc1` (relative stereo), for which the outcome in experiment [1], in experiment [4], in [5], in [12] and in [13] was Active. For the same compound, the outcome in [2], in experiment [10] and in experiment [14] was inactive. Also, the MIC in experiment [3] is greater than 200 µg/mL; in experiment [6] it was 100 µg/mL (≈ 332 µM); in [7], greater than 200 µg/mL; in experiment [8], 100 µg/mL (≈ 332 µM); in experiment [9], 100 µg/mL (≈ 332 µM); in experiment [11], 200 µg/mL (≈ 664 µM).
For the compound `COc1ccccc1/C=C1\CCC(CN2CCOCC2)C1=O` (stereo unspecified), the MIC was 12.5 µg/mL (≈ 41.5 µM) in [3]; 6.25 µg/mL (≈ 20.7 µM) in experiment [6]; 12.5 µg/mL (≈ 41.5 µM) in experiment [7]; 3.12 µg/mL (≈ 10.4 µM) in [8]; 3.12 µg/mL (≈ 10.4 µM) in experiment [9]; greater than 200 µg/mL in [11]. The Activity was found to be 9 in experiment [16] and 81 in experiment [18]. For the same compound, the outcome in experiment [17] was inactive.
On to `O=C1/C(=C/c2ccccc2)CCCCC1CN1CCCCC1` (stereo unspecified), for which the MIC in [3] is 200 µg/mL (≈ 672 µM); in [6] it was 100 µg/mL (≈ 336 µM); in [7], 100 µg/mL (≈ 336 µM); in experiment [8], 100 µg/mL (≈ 336 µM); in experiment [9], 50 µg/mL (≈ 168 µM); in experiment [11], 100 µg/mL (≈ 336 µM). For the same compound, the result in [19], in [21] and in experiment [23] was inactive. In [20], this compound came in with an inhibition of 24%. Moreover, the Activity in experiment [16] is reported as 47; in experiment [18], 39. For the same compound, in experiment [22], the inhibition result was “inactive”.
Consider `C[C@@H]1[C@H](O)[C@@H](C)/C=C/C=C/C=C/C=C/C=C/C=C/C=C/[C@H](O[C@@H]2O[C@H](C)[C@@H](O)[C@H](N)[C@@H]2O)C[C@@H]2O[C@](O)(C[C@@H](O)C[C@@H](O)[C@H](O)CC[C@@H](O)C[C@@H](O)CC(=O)O[C@H]1C)C[C@H](O)[C@H]2C(=O)O` [AMPHOTERICIN B], for which the Activity in [16] is 18; in experiment [18] it was 77.
With `COc1cccc(/C=C2\CCC(CN3CCOCC3)C2=O)c1` (stereo unspecified), the MIC worked out at 3.12 µg/mL (≈ 10.4 µM) in experiment [3]; 1.56 µg/mL (≈ 5.18 µM) in [6]; 3.12 µg/mL (≈ 10.4 µM) in experiment [7]; 3.12 µg/mL (≈ 10.4 µM) in experiment [8]; 3.12 µg/mL (≈ 10.4 µM) in experiment [9]; 50 µg/mL (≈ 166 µM) in experiment [11]. For the same compound, the inhibition result in [20] is “inactive”. The result in experiment [15] and in [22] was inactive.
